Reference: patent US8940497B2, “Enzyme regulating ether lipid signaling pathways” (The Scripps Research Institute, priority 2006, dated 2015)
Entries after “also recorded” stand apart in the source; their conditions may differ.

What was measured:
[1] = test system: SKOV-3 cells; assay: Untargeted LC-MS comparative metabolomics of inhibitor-treated cells; format: cell-based, human; settings: 4 h
Procedure: (§1) The following LC-MS conditions were used for analysis of cancer cell metabolomes. Cell pellets were harvested by scraping, isolated by centrifugation at 1,400×g, and dounce-homogenized in 4 mL of a 2:1:1 mixture of chloroform:methanol:Tris buffer (50 mM Tris*HCl, pH 8.0). Samples that were analyzed by targeted LC-MS were homogenized in the presence of the following synthetic standards: C15:0 MAG (50 pmol), C17:0 LPA (50 pmol), and 13C-C16:0 MAGE (25 pmol). Organic and aqueous layers were separated by centrifugation at 1,260×g for 5 min. The organic layer was then removed, dried under a stream of N2, and re-solubilized in 100 μL of chloroform, of which 30 μL was analyzed by LC-MS. Extraction of LPA was performed by acidifying the remaining aqueous layer to a final concentration of 5% formic acid, followed by the addition of 2 mL of chloroform. The mixture was vortexed, the organic layer removed, concentrated to dryness, and dissolved in 100 μL of chloroform, of which 30 μL was analyzed by LC-MS.
(§2) LC-MS analysis was performed using an Agilent 1100 LC-MSD SL instrument. […] Mobile phase A was composed of a 95:5 ratio of water:methanol and mobile phase B consisted of 2-propanol, methanol, and water in a 60:35:5 ratio. Solvent modifiers such as 0.1% formic acid and 0.1% ammonium hydroxide were used to assist ion formation as well as improve the LC resolution in both positive and negative ionization modes respectively. The flow rate for each run started at 0.1 mL/min for 5 min, to alleviate backpressure associated with injecting chloroform. The gradient started at 0% B and increased linearly to 100% B over the course of 40 min with a flow rate of 0.4 mL/min, followed by an isocratic gradient of 100% B for 7 min before equilibrating for 8 min at 0% B with a flow rate of 0.5 mL/min.
(§3) MS analysis was performed with an electrospray ionization (ESI) source. The capillary voltage was set to 3.0 kV and the fragmentor voltage to 100V. The drying gas temperature was 350° C., the drying gas flow rate was 10 L/min, and the nebulizer pressure was 35 psi. Untargeted data was collected using a mass range of 200-1000 Da and exported as common data format (.CDF) files for computational analysis. Differentially expressed metabolites between sample pairs were identified using the XCMS analyte profiling software (http://metlin/download) that aligns mass peaks from two LC-MS traces and quantifies the relative intensities of global metabolites (5). Significant inhibitor-sensitive peak changes were confirmed by manual quantification using the area under the peak normalized to total ion current. Targeted LC-MS measurements were made using selected ion monitoring (SIM). Peaks were quantified by measuring the area under the peak and normalized to an internal standard (C15:0 MAG) or endogenous lipid (palmitic acid). Absolute MAGE levels were estimated by comparison to a 13C-MAGE standard.
(§4) Human ovarian cancer cell lines were obtained form the National Cancer Institute's Developmental Therapeutics Program. The melanoma lines C8161 and MUM-2B were obtained form Mary Hendrix. Cells were maintained in RPMI medium 1640 with 10% (v/v) fetal calf serum at 37° C. in a humidified atmosphere of 5% CO2/95% air. At approximately 80% confluency, cells were trypsinized, counted with the aid of a hemocytometer, and 2.5×10^6 cells were plated in 6 cm dishes. 20 h after plating cells were washed twice with PBS and supplemented with serum free RPMI containing 0.5% BSA (Sigma)(BSA-RPMI) with AS115 (0.01-10 μM) or vehicle (DMSO) at 0.1%. After incubation for 4 h the cells were harvested and analyzed by ABPP or LC-MS.
These experiments were performed using the method of untargeted liquid chromatography-mass spectrometry (LC-MS) for comparative metabolomics. Cells were treated with AS115 (10 μM) or DMSO for 4 h and analyzed by untargeted LC-MS methods. […] Relative mass signals are shown in Table 1, represented as the average values and standard error for three independent experiments.

[2] = test system: MUM-2B melanoma cells; assay: LC-MS MAGE lipid levels in inhibitor-treated melanoma cells; format: cell-based, human; settings: compared to DMSO controls
Procedure: as §1, §2
(§5) MS analysis was performed with an electrospray ionization (ESI) source. […] Differentially expressed metabolites between sample pairs were identified using the XCMS analyte profiling software (http://metlin/download) that aligns mass peaks from two LC-MS traces and quantifies the relative intensities of global metabolites (5). Significant inhibitor-sensitive peak changes were confirmed by manual quantification using the area under the peak normalized to total ion current. […] Peaks were quantified by measuring the area under the peak and normalized to an internal standard (C15:0 MAG) or endogenous lipid (palmitic acid). […]
(§6) Human ovarian cancer cell lines were obtained form the National Cancer Institute's Developmental Therapeutics Program. […] At approximately 80% confluency, cells were trypsinized, counted with the aid of a hemocytometer, and 2.5×10^6 cells were plated in 6 cm dishes. […] After incubation for 4 h the cells were harvested and analyzed by ABPP or LC-MS. […]

[3] = test system: C8161 melanoma cells; assay: as above; format: cell-based, human; settings: compared to DMSO controls
Procedure: as §1, §2, §5, §6

[4] = test system: SKOV-3 cells; assay: Metabolic labeling of SKOV-3 cells with 13C-2-acetyl MAGE; format: cell-based, human; settings: 10 μM 13C-2-acetyl MAGE, 1 h
Procedure: Cells were cultured and maintained as described above. Cells used for 13C-2-acetyl MAGE experiments were incubated in BSA-RPMI containing inhibitor or vehicle for […]. BSA-RPMI medium was then removed, supplemented with 10 μM 13C-2-acetyl MAGE or DMSO, and re-applied to cells. After incubation for 1 h the cells were harvested and metabolomes were analyzed by LC-MS. 13C-MAGE experiments were conducted by addition of 13C-MAGE or DMSO containing BSA-RPMI directly after washing with PBS. Cells were then incubated for 4 h, harvested, and analyzed by LC-MS.

[5] = test system: SKOV-3 cells; assay: Targeted LC-MS analysis of lipid levels in inhibitor-treated cells; format: cell-based, human
Procedure: as §1, §2, §3, §4
By extension, the m/z 345 and 347 metabolites were interpreted to represent the C18:1 and C18:0 MAGEs, respectively. […] MAGE levels were measured by targeted LC-MS analysis of SKOV-3 cells treated with AS115 (5 μM) or DMSO for 4 h using a 13C-C16:0 MAGE internal standard. Values are represented as pmol/10^6 cells. […]

[6] = test system: other serine hydrolase activities; assay: In situ competitive ABPP with FP-rhodamine, other serine hydrolases; format: cell-based, human; settings: SKOV-3 cells treated in culture with AS115 (0-10 μM), 4 h
Procedure: as §4
[…]. Cells were washed twice and scraped in ice-cold PBS. […] Proteomes protein concentrations were determined by a protein assay kit (Bio-Rad), adjusted to a final concentration of 1 mg/mL in Tris buffer, and treated with 2 μM FP-rhodamine for 30 min at room temperature (50 μL total reaction volume). […] Reactions were quenched with one volume of standard 2×SDS/PAGE loading buffer (reducing), separated by SDS/PAGE (10% acrylamide) and visualized in-gel with a Hitachi FMBio Ile flatbed fluorescence scanner (MiraiBio). Integrated band intensities were calculated for the labeled proteins and averaged from 3 independent cell samples to determine the level of each enzyme activity.

[7] = test system: background 2-thioacetyl MAGE hydrolyzing activity in membrane proteomes; assay: Background 2-thioacetyl MAGE hydrolyzing activity in membrane proteomes; format: biochemical; settings: FIG. 14
Procedure: KIAA1363-transfected cell lines were used for substrate-based enzyme activity assays. Membrane proteomes were adjusted to 0.5 mg/ml in 50 mM tris pH 7.4 buffer containing 5 mM CHAPS detergent. Immediately prior to the assay, 5,5′-dithiobis-(2-nitrobenzoic acid) (DTNB, Sigma) was added at 0.5 mM to the membrane proteome to prepare the Assay Buffer. For analysis of inhibitors, 1 ul of a 50× inhibitor solution in DMSO was added to 48 ul of Assay Buffer and preincubated for 20 min at RT. The substrate 2-thioacetyl MAGE (Cayman Chemical) was prepared by evaporating off the original solvent under nitrogen and redissolving the residue in DMSO. 1 ul of 5 mM 2-thioacetyl MAGE stock is added to each assay well to begin the assay. Absorbance is determined at A405 nm.
The background 2-thioacetyl MAGE hydrolyzing activity in membrane proteomes that is not inhibited by AS-115 is inhibited by the broad serine protease inhibitor PMSF (FIG. 14). The IC50 of AS-115 was measured using the 2-thioacetyl MAGE substrate-based assay with Flag-KIAA1363/293T cell membrane proteome (FIG. 15).

CCCCOCC1CCCCC1COCCNC(=O)Oc1ccccc1F (stereo not drawn) [AS115]
Levels of lipophilic metabolites (m/z 317, 345, and 347) ([1]; 10 μM): substantial reduction
Levels of typical lipid species (free fatty acids, phospholipids, ceramides, monoacylglycerides) ([1]; 10 μM): none of which were significantly altered
Relative mass signal DMSO/AS115, Ceramide C16 ([1]; AS115 10 μM or DMSO): 0.53
Relative mass signal DMSO/AS115, Ceramide C18 ([1]; AS115 10 μM or DMSO): 0.73
Relative mass signal DMSO/AS115, FFA C14 ([1]; AS115 10 μM or DMSO): 0.69
Relative mass signal DMSO/AS115, FFA C16 ([1]; AS115 10 μM or DMSO): 0.69
Relative mass signal DMSO/AS115, FFA C18 ([1]; AS115 10 μM or DMSO): 0.76
Relative mass signal DMSO/AS115, FFA C18:1 ([1]; AS115 10 μM or DMSO): 0.56
Relative mass signal DMSO/AS115, FFA C20:4 ([1]; AS115 10 μM or DMSO): 1.04
Relative mass signal DMSO/AS115, MAG C16 ([1]; AS115 10 μM or DMSO): 1.00
Relative mass signal DMSO/AS115, MAG C18:1 ([1]; AS115 10 μM or DMSO): 0.83
Relative mass signal DMSO/AS115, PA C32 ([1]; AS115 10 μM or DMSO): 1.01
Relative mass signal DMSO/AS115, PA C34 ([1]; AS115 10 μM or DMSO): 1.41
Relative mass signal DMSO/AS115, PA C34:1 ([1]; AS115 10 μM or DMSO): 0.95
Relative mass signal DMSO/AS115, PA C36:1 ([1]; AS115 10 μM or DMSO): 0.99
Relative mass signal DMSO/AS115, PA C36:2 ([1]; AS115 10 μM or DMSO): 0.74
Relative mass signal DMSO/AS115, PC C32 ([1]; AS115 10 μM or DMSO): 1.07
Relative mass signal DMSO/AS115, PC C34 ([1]; AS115 10 μM or DMSO): 0.96
Relative mass signal DMSO/AS115, PC C34:1 ([1]; AS115 10 μM or DMSO): 1.01
Relative mass signal DMSO/AS115, PC C36:1 ([1]; AS115 10 μM or DMSO): 0.68
Relative mass signal DMSO/AS115, PC C36:2 ([1]; AS115 10 μM or DMSO): 1.07
Relative mass signal DMSO/AS115, PE C32 ([1]; AS115 10 μM or DMSO): 1.13
Relative mass signal DMSO/AS115, PE C34 ([1]; AS115 10 μM or DMSO): 0.94
Relative mass signal DMSO/AS115, PE C34:1 ([1]; AS115 10 μM or DMSO): 0.84
Relative mass signal DMSO/AS115, PE C36:1 ([1]; AS115 10 μM or DMSO): 0.94
Relative mass signal DMSO/AS115, PE C36:2 ([1]; AS115 10 μM or DMSO): 0.61
Relative mass signal DMSO/AS115, PG C32 ([1]; AS115 10 μM or DMSO): 0.78
Relative mass signal DMSO/AS115, PG C34 ([1]; AS115 10 μM or DMSO): 0.95
Relative mass signal DMSO/AS115, PG C34:1 ([1]; AS115 10 μM or DMSO): 0.98
Relative mass signal DMSO/AS115, PG C36:1 ([1]; AS115 10 μM or DMSO): 0.89
Relative mass signal DMSO/AS115, PG C36:2 ([1]; AS115 10 μM or DMSO): 1.04
Relative mass signal DMSO/AS115, PS C32 ([1]; AS115 10 μM or DMSO): 1.06
Relative mass signal DMSO/AS115, PS C34 ([1]; AS115 10 μM or DMSO): 1.02
Relative mass signal DMSO/AS115, PS C34:1 ([1]; AS115 10 μM or DMSO): 0.96
Relative mass signal DMSO/AS115, PS C36:1 ([1]; AS115 10 μM or DMSO): 0.99
Relative mass signal DMSO/AS115, PS C36:2 ([1]; AS115 10 μM or DMSO): 1.13
Relative mass signal DMSO/AS115, MAGE C16 ([1]; AS115 10 μM or DMSO, p<0.001): 5.29
Relative mass signal DMSO/AS115, MAGE C18 ([1]; AS115 10 μM or DMSO, p<0.001): 5.86
Relative mass signal DMSO/AS115, MAGE C18:1 ([1]; AS115 10 μM or DMSO, p<0.001): 4.42
Levels of MAGE lipids [2]: significantly reduced
Levels of MAGE lipids [3]: significantly reduced
Levels of 2-acetyl MAGE as judged by metabolic labeling [4]: significantly stabilized
PAF level in metabolic labeling experiments [4]: accumulation
Basal levels of 2-acetyl MAGE [5]: not significantly altered
Basal levels of PAF [5]: not significantly altered
Absolute level of MAGE lipid C18:1 ([5]; 5 μM, 4 h, 13C-C16:0 MAGE internal standard, DMSO 12.1 ± 0.4): 4.0 ± 0.7 pmol/10^6 cells
Absolute level of MAGE lipid C18:0 ([5]; 5 μM, 4 h, 13C-C16:0 MAGE internal standard, DMSO 39.5 ± 3.7): 7.6 ± 2.3 pmol/10^6 cells
Absolute level of MAGE lipid C16:0 ([5]; 5 μM, 4 h, 13C-C16:0 MAGE internal standard, DMSO 94.7 ± 6.6): 19.3 ± 2.2 pmol/10^6 cells
Levels of MAGE lipids ([5]; compared to DMSO controls): significantly lowered; also recorded: reduce
Levels of alkyl-LPA ([5]; vs vehicle, FIG. 7B): reduce
Levels of alkyl-LPC ([5]; vs vehicle, FIG. 7B): reduce
IC50 [6]: > 10 µM
Background 2-thioacetyl MAGE hydrolyzing activity [7]: not inhibited

O=S(=O)(F)Cc1ccccc1 [PMSF, reference compound]
Background 2-thioacetyl MAGE hydrolyzing activity [7]: inhibited
